Measured values from patent US7022311B1, “Powdery inhalational preparations and process for producing the same” (Kaken Pharmaceutical Co., Ltd., priority 1999, dated 2006).

How the values were obtained:
[1] = Dispersibility of active ingredient from carrier particles, laser diffraction particle size analyzer; format: physicochemical; conditions: Example 17: S-36496 10%, micronized lactose 1%, carrier trehalose 89%, particles of 10 μm or less
[2] = In vitro lung delivery fraction test with multi-stage cascade impactor (Andersen sampler, Jethaler); format: physicochemical; conditions: 28.3 L/min; for Residual and Distributed Fractions of Active Ingredient: Capsule / Residual and Distributed Fractions of Active Ingredient: Inhaler device / Residual and Distributed Fractions of Active Ingredient: Stage 0 / Residual and Distributed Fractions of Active Ingredient: Stage 1 / Residual and Distributed Fractions of Active Ingredient: Stages 2–7 / Residual and Distributed Fractions of Active Ingredient: Throat / Capsule, residual active ingredient / Inhaler device, residual active ingredient / Stage 0, distribution of active ingredient / Stage 1, distribution of active ingredient / Stages 2–7, lung delivery fraction / Throat, distribution of active ingredient: S-36496 10%
Description: Capsulated preparations (The Japanese Pharmacopeia No. 2 HPMC capsules: manufactured by Shionogi Qualicaps Co., Ltd.) which were filled with about 40 mg each of three dry powder inhalations were prepared and mounted on an inhaler device (Jethaler; Unisia Jecs Corp.) The Jethaler was then attached to the mouthpiece of a cascade impactor (Andersen sampler Model AN-200) and inspired at a flow rate of 28.3 L/min., thereby dispersing the micronized medication in the capsule and measuring the residual active ingredient in the capsule and in the inhaler device as well as the distribution of the active ingredient at each stage with liquid chromatography. It was confirmed that in the in vitro test with cascade impactor, the lung delivery fraction at stages 2–7 corresponding to the respiring fraction differed substantially depending on the different carrier particles.
(§1) Capsulated preparations (The Japanese Pharmacopeia No. 2HPMC capsules: manufactured by Shionogi Qualicaps Co., Ltd.), which were filled with about 40 mg each of three dry powder inhalations, were prepared and mounted on an inhaler device (Jethaler®; Unisia Jecs Corp.). The Jethaler® brand device was then attached to the mouthpiece of a cascade impactor (Andersen sampler; Model AN-200) and inspired at a flow rate of 28.3 L/min., thereby dispersing the dry powder inhalation in the capsule and measuring the residual active ingredient in the capsule and in the inhaler device as well as the distribution of the active ingredient at each stage with liquid chromatography.
(§2) A capsulated preparation (The Japanese Pharmacopeia No. 2HPMC capsules: manufactured by Shionogi Qualicaps Co., Ltd.) which was filled with about 40 mg of the prepared dry powder inhalations was prepared and mounted on an inhaler device (Jethaler; Unisia Jecs Corp.) The Jethaler was then attached to the mouthpiece of a cascade impactor (Andersen sampler; Model AN-200) and inspired at a flow rate of 28.3 L/min., thereby dispersing the dry powder inhalation in the capsule and measuring the residual active ingredient in the capsule and in the inhaler device as well as the distribution of the active ingredient at each stage with liquid chromatography.
as §1, with “A capsulated preparation (The” for “Capsulated preparations (The”, “which was” for “which were”, “mg” for “mg each”, “chromatography. […]” for “chromatography.”
as §2, with “2 HPMC” for “2HPMC”, “Ltd.)” for “Ltd.) which was”, “inhalation” for “inhalations”

[3] = Example 10: S-36496 3.2%, carrier lactose 95.8%, micronized lactose 1.0%
[4] = Example 17: S-36496 10%, micronized lactose 1%, carrier trehalose 89%, Vertical Granulator 5 min
[5] = micronized lactose 1%, carrier trehalose 89% of particle size 48.6 μm
[6] = micronized lactose 1%, carrier trehalose 89% of particle size 81.0 μm
[7] = micronized lactose 1%, carrier trehalose 89% of particle size 97.9 μm
[8] = micronized lactose 1%, erythritol carrier 89% of mean particle diameter 53.8 μm
[9] = micronized lactose 1%, erythritol carrier 89% of mean particle diameter 81.6 μm
[10] = micronized lactose 1%, erythritol carrier 89% of mean particle diameter 155.9 μm

CC(C)c1csc(COc2cccc(CN(CCCCNS(=O)(=O)c3ccc(Cl)cc3)S(=O)(=O)c3ccccc3C(=O)O)c2)n1 [Example S-36496, 2-{N-[4-(4-chlorobenzenesulfonylamino)butyl]-N-{3-[(4-isopropyl-2-thiazoyl)methoxy]benzyl}}sulfamoylbenzenolic acid]
Dispersibility of drugs (active ingredient) (%) ([1]; Spray Pressure 0.2 kg/cm^2): 8.3% | Dispersibility of drugs (active ingredient) (%) ([1]; Spray Pressure 0.3 kg/cm^2): 9.4% | Residual and Distributed Fractions of Active Ingredient (%): Capsule [2, 3]: 8.2% | Residual and Distributed Fractions of Active Ingredient (%): Inhaler device [2, 3]: 19.3% | Residual and Distributed Fractions of Active Ingredient (%): Stage 0 [2, 3]: 19.5% | Residual and Distributed Fractions of Active Ingredient (%): Stage 1 [2, 3]: 9.1% | Residual and Distributed Fractions of Active Ingredient (%): Stages 2–7 [2, 3]: 18.2% | Residual and Distributed Fractions of Active Ingredient (%): Throat [2, 3]: 25.7% | Residual and Distributed Fractions of Active Ingredient (%): Capsule [2, 4]: 7.3% | Residual and Distributed Fractions of Active Ingredient (%): Inhaler device [2, 4]: 19.4% | Residual and Distributed Fractions of Active Ingredient (%): Stage 0 [2, 4]: 22.3% | Residual and Distributed Fractions of Active Ingredient (%): Stage 1 [2, 4]: 5.8% | Residual and Distributed Fractions of Active Ingredient (%): Stages 2–7 [2, 4]: 30.2% | Residual and Distributed Fractions of Active Ingredient (%): Throat [2, 4]: 15.0% | Residual and Distributed Fractions of Active Ingredient: Capsule [2, 5]: 9.0% | Residual and Distributed Fractions of Active Ingredient: Inhaler device [2, 5]: 24.2% | Residual and Distributed Fractions of Active Ingredient: Stage 0 [2, 5]: 24.7% | Residual and Distributed Fractions of Active Ingredient: Stage 1 [2, 5]: 2.9% | Residual and Distributed Fractions of Active Ingredient: Stages 2–7 [2, 5]: 6.4% | Residual and Distributed Fractions of Active Ingredient: Throat [2, 5]: 32.8% | Residual and Distributed Fractions of Active Ingredient: Capsule [2, 6]: 4.9% | Residual and Distributed Fractions of Active Ingredient: Inhaler device [2, 6]: 19.1% | Residual and Distributed Fractions of Active Ingredient: Stage 0 [2, 6]: 18.4% | Residual and Distributed Fractions of Active Ingredient: Stage 1 [2, 6]: 2.0% | Residual and Distributed Fractions of Active Ingredient: Stages 2–7 [2, 6]: 31.4% | Residual and Distributed Fractions of Active Ingredient: Throat [2, 6]: 24.2% | Residual and Distributed Fractions of Active Ingredient: Capsule [2, 7]: 5.8% | Residual and Distributed Fractions of Active Ingredient: Inhaler device [2, 7]: 25.1% | Residual and Distributed Fractions of Active Ingredient: Stage 0 [2, 7]: 18.2% | Residual and Distributed Fractions of Active Ingredient: Stage 1 [2, 7]: 5.8% | Residual and Distributed Fractions of Active Ingredient: Stages 2–7 [2, 7]: 17.9% | Residual and Distributed Fractions of Active Ingredient: Throat [2, 7]: 27.2% | Capsule, residual active ingredient [2, 8]: 3.0% | Inhaler device, residual active ingredient [2, 8]: 18.2% | Stage 0, distribution of active ingredient [2, 8]: 28.9% | Stage 1, distribution of active ingredient [2, 8]: 3.5% | Stages 2–7, lung delivery fraction [2, 8]: 24.4% | Throat, distribution of active ingredient [2, 8]: 22.0% | Capsule, residual active ingredient [2, 9]: 2.6% | Inhaler device, residual active ingredient [2, 9]: 14.6% | Stage 0, distribution of active ingredient [2, 9]: 21.8% | Stage 1, distribution of active ingredient [2, 9]: 3.8% | Stages 2–7, lung delivery fraction [2, 9]: 40.4% | Throat, distribution of active ingredient [2, 9]: 16.9% | Capsule, residual active ingredient [2, 10]: 2.5% | Inhaler device, residual active ingredient [2, 10]: 2.9% | Stage 0, distribution of active ingredient [2, 10]: 66.4% | Stage 1, distribution of active ingredient [2, 10]: 15.2% | Stages 2–7, lung delivery fraction [2, 10]: 11.3% | Throat, distribution of active ingredient [2, 10]: 1.7%
